# Results from US7482344B2, “Tricyclic steroid hormone nuclear receptor modulators” (Eli Lilly and Company, priority 2003, dated 2009).
# Biological target: T1, human GR (glucocorticoid receptor) (Homo sapiens, UniProt P04150)
# T1 construct: expressed in transfected cells; host or cells: 293 cells
# T1 sequence (P04150 1-777): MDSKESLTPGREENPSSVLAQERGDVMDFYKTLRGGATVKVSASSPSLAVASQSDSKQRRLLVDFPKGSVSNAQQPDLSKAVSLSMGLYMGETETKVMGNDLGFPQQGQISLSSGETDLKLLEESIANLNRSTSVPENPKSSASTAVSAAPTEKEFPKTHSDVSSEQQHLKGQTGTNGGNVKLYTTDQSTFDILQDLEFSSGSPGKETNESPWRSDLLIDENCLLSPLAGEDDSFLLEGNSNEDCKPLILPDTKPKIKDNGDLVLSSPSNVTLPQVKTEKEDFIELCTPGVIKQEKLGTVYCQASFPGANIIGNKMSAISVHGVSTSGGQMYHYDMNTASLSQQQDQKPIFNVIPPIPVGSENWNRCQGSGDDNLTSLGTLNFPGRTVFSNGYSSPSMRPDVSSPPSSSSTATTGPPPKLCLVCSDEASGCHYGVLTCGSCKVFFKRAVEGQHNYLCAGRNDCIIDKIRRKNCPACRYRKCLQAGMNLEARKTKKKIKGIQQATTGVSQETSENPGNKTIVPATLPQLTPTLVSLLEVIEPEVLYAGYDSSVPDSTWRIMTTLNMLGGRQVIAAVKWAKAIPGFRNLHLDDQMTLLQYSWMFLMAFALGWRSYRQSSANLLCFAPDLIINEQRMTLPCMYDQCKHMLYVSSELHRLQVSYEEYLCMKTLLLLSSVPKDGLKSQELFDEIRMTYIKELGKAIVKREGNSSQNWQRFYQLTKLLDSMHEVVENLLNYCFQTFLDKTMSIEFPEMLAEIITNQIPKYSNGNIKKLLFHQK
# Assay: Alternative Binding Assay Protocol (Method 2), 293-GR lysate, 3H-dexamethasone competition
# Details: 0.3 nM 3H-dexamethasone
# Protocol: Alternative Binding Assay Protocol for MR, GR, AR, and PR (Method 2):
# Cell lysates from 293 cells overexpressing human GR (glucocorticoid receptor), AR (androgen receptor), MR (mineralocorticoid receptor) or PR (progesterone receptor) are used for competition binding assays to determine Ki values for test compounds. Briefly, competition binding assays are run in a buffer containing 20 mM Hepes, pH 7.6, 0.2 mM EDTA, 75 mM NaCl, 1.5 mM MgCl2, 20% glycerol, 20 mM sodium molybdate, 0.2 mM DTT, 20 ug/ml aprotinin and 20 ug/ml leupeptin, using either 0.3 nM ^3H-dexamethasone for GR binding, 0.36 nM ^3H-methyltrienolone for AR binding, 0.25 nM ^3H-aldosterone for MR binding, or 0.29 nM ^3H-methyltrienolone for PR binding, and either 20 ug 293-GR lysate, 22 ug 293-AR lysate, 20 ug 293-MR lysate or 40 ug 293-PR lysate per well. Competing compounds are added various concentrations in half-log increments. Non-specific binding is determined in the presence of 500 nM dexamethasone for GR binding, 500 nM aldosterone for MR binding, or 500 nM methyltrienolone for AR and PR binding. The binding reaction (140 μl) is incubated for overnight at 4° C. then 70 μl of cold charcoal-dextran buffer (containing per 50 ml of assay buffer, 0.75 g of charcoal and 0.25 g of dextran) is added to each reaction. Plates are mixed 8 minutes on an orbital shaker at 4° C. Plates are then centrifuged at 3,000 rpm at 4° C. for 10 minutes. An aliquot of 120 μl of the mix is transferred to another 96-well plate and 175 μl of Wallac Optiphase “Hisafe 3” scintillation fluid is added to each well. Plates are sealed and shaken vigorously on an orbital shaker. After an incubation of 2 hrs, plates are read in a Wallac Microbeta counter. The data is used to calculate an IC50 and % Inhibition at 10 μM. The Kd for ^3H-dexamethasone for GR binding, ^3H-methyltrienolone for AR binding, ^3H-aldosterone for MR binding, or ^3H-methyltrienolone for PR binding, is determined by saturation binding. The IC50 values for compounds are converted to Ki using Cheng-Prusoff equation and the Kd determined by saturation binding assay.
row,Structure (SMILES),Ki
1,"CC(=C1c2ccccc2Sc2ccccc21)c1cccc(NS(C)(=O)=O)c1 [Example 4, 9-[1-(3-methylsulfonoylaminophenyl)ethylene] thioxanthine]",< 500 nM
2,"O=c1[nH]c2ccc(C=C3c4ccc(F)cc4Sc4cc(F)ccc43)cc2[nH]1 [Example 5, 5-(3,6-Difluoro-thioxanthen-9-ylidenemethyl)-1,3-dihydro-benzoimidazol-2-one]",< 1000 nM
3,CC(=C1c2ccccc2Sc2ccccc21)c1cccc(N)c1 [Example 6],< 500 nM
4,CS(=O)(=O)Nc1cccc(C=C2c3ccccc3Sc3ccccc32)c1 [Example 8],< 500 nM
5,Nc1cccc(C=C2c3ccccc3Sc3ccccc32)c1 [Example 9],< 1000 nM
6,O=c1[nH]c2ccc(C=C3c4ccccc4Sc4ccccc43)cc2[nH]1 [Example 10],< 10000 nM
7,O=c1[nH]c2cc(C=C3c4ccccc4Sc4ccccc43)ccc2o1 [Example 11],< 500 nM
8,O=c1[nH]c2cc(C=C3c4ccccc4Sc4ccccc43)ccc2s1 [Example 12],< 500 nM
9,O=c1[nH]c2cc(C=C3c4ccccc4Sc4ccccc43)ccc2n1CCN1CCOCC1 [Example 13],< 1000 nM
10,CN1CCN(CCn2c(=O)[nH]c3cc(C=C4c5ccccc5Sc5ccccc54)ccc32)CC1 [Example 14],< 10000 nM
11,Oc1ccccc1C=C1c2ccccc2Sc2ccccc21 [Example 15],< 500 nM
